Results published in the RepoRT retention time repository (doi:10.1007/s11306-014-0638-x).

Assay: RP, Waters ACQUITY UPLC HSS T3, 150 × 2.1 mm, 1.8 µm, 40 °C, 0.28 mL/min, estimated dead time 1.2 min; A: water + 0.1% formic acid, pH 3; B: methanol + 0.1% formic acid, pH 3; gradient (min/%B) 0/0 1/0 3/10 18/40 21/100 25.5/100 25.6/0 28/0
Conditions: stereoisomer not certain
Compound `O=C(O)c1ccc(O)c(O)c1` [3,4-dihydroxybenzoic acid] has an LC retention time of 7.77 min.
With `O=C(O)c1cc(O)cc(O)c1` [3,5-dihydroxybenzoic acid] the LC retention time was 7.75 min.
In the case of `O=C(O)c1ccc(O)cc1` [4-hydroxybenzoic acid], the LC retention time is reported as 10.6 min.
For `NC(CCC(=O)NC(CS)C(=O)NCC(=O)O)C(=O)O` [L-glutathione], the LC retention time was 1.7 min.
With `CC[C@H](C)[C@H](N)C(=O)O` [L-isoleucine] the LC retention time was 4.44 min.
For `O=C(O)[C@@H]1CCCN1` [L-proline], the LC retention time was 1.51 min.
`O=C(O)[C@H](O)[C@@H](O)C(=O)O` [L-tartaric acid] gave an LC retention time of 1.46 min.
`N[C@@H](Cc1ccc(O)cc1)C(=O)O` [L-tyrosine] showed an LC retention time of 4.28 min.
For `OCC1OC(Oc2cc(O)cc(C=Cc3ccc(O)c(O)c3)c2)C(O)C(O)C1O` (stereo not given) [astringin], the LC retention time was 14.2 min.
Work on `O=C1CC(c2ccc(O)c(O)c2)c2c(cc(O)c3c2OC(c2ccc(O)c(O)c2)C(O)C3)O1` (stereo not given) [caffeic acid+catechin condensation product] yielded an LC retention time of 17.8 min.
With `O=C(C=Cc1ccc(O)c(O)c1)OC(C(=O)O)C(O)C(=O)O` (stereo not given) [caftaric acid] the LC retention time was 8.53 min.
Work on `OCC1OC(Oc2cc(O)cc(C=Cc3ccc(O)cc3)c2)C(O)C(O)C1O` (stereo not drawn) [cis-piceid] yielded an LC retention time of 18.4 min.
`Oc1ccc(/C=C\c2cc(O)cc(O)c2)cc1` [cis-resveratrol] showed an LC retention time of 20.4 min.
Compound `CC(O)(CC(=O)O)C(=O)O` (stereo not given) [citramalic acid] has an LC retention time of 4.02 min.
`O=c1oc2c(O)c(O)cc3c(=O)oc4c(O)c(O)cc1c4c23` [ellagic acid] showed an LC retention time of 20.3 min.
For `Oc1ccc(C2Oc3cc(O)cc(O)c3CC2O)cc1` (stereo not given) [epiafzelechin], the LC retention time was 15.6 min.
With `O=C(OC1Cc2c(O)cc(O)cc2OC1c1ccc(O)c(O)c1)c1cc(O)c(O)c(O)c1` (stereo not given) [epicatechin gallate] the LC retention time was 16 min.
For `Oc1cc(O)c2c(c1)OC(c1ccc(O)c(O)c1)C(O)C2` (stereo not given) [epicatechin], the LC retention time was 12.1 min.
Compound `O=C(OC1Cc2c(O)cc(O)cc2OC1c1cc(O)c(O)c(O)c1)c1cc(O)c(O)c(O)c1` (stereo not given) [epigallo-catechin gallate] has an LC retention time of 12.7 min.
With `CCOC(=O)c1cc(O)c(O)c(O)c1` [ethyl gallate] the LC retention time was 15.2 min.
In the case of `COc1cc(C=CC(=O)OC(C(=O)O)C(O)C(=O)O)ccc1O` (stereo not given) [fertaric acid], the LC retention time is reported as 11.8 min.
Compound `COc1cc2ccc(=O)oc2c(OC2OC(CO)C(O)C(O)C2O)c1O` (stereo not given) [fraxin] has an LC retention time of 12.6 min.
In the case of `Oc1cc(O)c2c(c1)OC(c1cc(O)c(O)c(O)c1)C(O)C2` (stereo not given) [gallocatechin], the LC retention time is reported as 8.68 min.
Work on `COc1ccc(C2CC(=O)c3c(O)cc(O)cc3O2)cc1O` (stereo not given) [hesperetin] yielded an LC retention time of 21.1 min.
Work on `Oc1ccc(C2Oc3cc(O)cc4c3C2c2cc(O)cc(O)c2C(c2ccc(O)cc2)C4C2c3cc(O)cc4c3C(c3cc(O)cc(O)c3C2c2ccc(O)cc2)C(c2ccc(O)cc2)O4)cc1` (stereo not given) [isohopeaphenol] yielded an LC retention time of 10.7 min.
Compound `COc1cc(-c2oc3cc(O)cc(O)c3c(=O)c2OC2OC(CO)C(O)C(O)C2O)ccc1O` (stereo not given) [isorhamnetin 3-glucoside] has an LC retention time of 20.5 min.
With `COc1cc(-c2oc3cc(O)cc(O)c3c(=O)c2OC2OC(COC3OC(C)C(O)C(O)C3O)C(O)C(O)C2O)ccc1O` (stereo not given) [isorhamnetin 3-rutinoside] the LC retention time was 20.6 min.
For `COc1cc(C=Cc2cc(O)cc(OC3OC(CO)C(O)C(O)C3O)c2)ccc1O` (stereo not given) [isorhapontin], the LC retention time was 17.6 min.
Compound `O=c1c(OC2OC(CO)C(O)C(O)C2O)c(-c2ccc(O)cc2)oc2cc(O)cc(O)c12` (stereo not given) [kaempferol 3-glucoside] has an LC retention time of 20.3 min.
With `CC1OC(OCC2OC(Oc3c(-c4ccc(O)cc4)oc4cc(O)cc(O)c4c3=O)C(O)C(O)C2O)C(O)C(O)C1O` (stereo not given) [kaempferol 3-rutinoside] the LC retention time was 20.5 min.
`O=c1cc(-c2ccc(O)c(O)c2)oc2cc(OC3OC(CO)C(O)C(O)C3O)cc(O)c12` (stereo not given) [luteolin 7-glucoside] gave an LC retention time of 19.7 min.
`COC(=O)c1cc(O)c(O)c(O)c1` [methyl gallate] showed an LC retention time of 10.7 min.
Compound `COc1cc(-c2oc3cc(=O)cc4oc(C)cc(c2OC2OC(CO)C(O)C(O)C2O)c43)cc(OC)c1O` (stereo not given) [methylpyrano malvidin 3-glucoside] has an LC retention time of 19.7 min.
In the case of `O=C1CC(c2ccc(O)cc2)Oc2cc(OC3OC(CO)C(O)C(O)C3O)cc(O)c21` (stereo not given) [naringenin 7-glucoside], the LC retention time is reported as 19.5 min.
Compound `O=C1CC(c2ccc(O)cc2)Oc2cc(O)cc(O)c21` (stereo not given) [naringenin] has an LC retention time of 21 min.
`O=C(O)C=Cc1ccccc1O` [o-coumaric acid] gave an LC retention time of 19.7 min.
With `COc1cc(-c2oc3cc(=O)cc4oc(O)cc(c2OC2OC(CO)C(O)C(O)C2O)c43)cc(OC)c1O` (stereo not given) [oxovitisin A] the LC retention time was 20.7 min.
For `Oc1ccc(C2c3c(O)cc(O)cc3C3C(c4ccc(O)cc4)c4c(O)cc(O)cc4C23)cc1` (stereo not given) [pallidol], the LC retention time was 17.6 min.
In the case of `CCOc1ccc(NC(C)=O)cc1` [phenacetin], the LC retention time is reported as 19.4 min.
For `O=C(CCc1ccc(O)cc1)c1c(O)cc(O)cc1O` [phloretin], the LC retention time was 21.1 min.
Work on `O=C(CCc1ccc(O)cc1)c1c(O)cc(O)cc1OC1OC(CO)C(O)C(O)C1O` (stereo not given) [phloridzin] yielded an LC retention time of 20.2 min.
Work on `Oc1cc(O)c2c(c1)OC(c1ccc(O)c(O)c1)C(O)C2c1c(O)cc(O)c2c1OC(c1ccc(O)c(O)c1)C(O)C2` (stereo not given) [procyanidin B1] yielded an LC retention time of 9.66 min.
Work on `CCC(=O)O` [proprionic acid] yielded an LC retention time of 3.95 min.
With `COc1cc(C=Cc2ccc(O)cc2)cc(OC)c1` [pterostilbene] the LC retention time was 21.9 min.
In the case of `O=c1c(OC2OC(CO)C(O)C(O)C2O)c(-c2ccc(OC3OC(CO)C(O)C(O)C3O)c(O)c2)oc2cc(O)cc(O)c12` (stereo not given) [quercetin 3,4'-diglucoside], the LC retention time is reported as 17.4 min.
With `O=c1c(OC2OC(C(O)CO)C(O)C2O)c(-c2ccc(O)c(O)c2)oc2cc(O)cc(O)c12` (stereo not given) [quercetin 3-glucoside] the LC retention time was 20 min.
Work on `O=C(O)C1OC(Oc2c(-c3ccc(O)c(O)c3)oc3cc(O)cc(O)c3c2=O)C(O)C(O)C1O` (stereo not given) [quercetin 3-glucuronide] yielded an LC retention time of 19.9 min.
Work on `CC1OC(OCC2OC(Oc3c(-c4ccc(O)c(O)c4)oc4cc(O)cc(O)c4c3=O)C(O)C(O)C2O)C(O)C(O)C1O` (stereo not given) [quercetin 3-rutinoside] yielded an LC retention time of 20 min.
In the case of `O=c1c(OS(=O)(=O)O)c(-c2ccc(O)c(O)c2)oc2cc(O)cc(O)c12` [quercetin 3-sulfate], the LC retention time is reported as 20.1 min.
Work on `O=c1c(O)c(-c2ccc(OC3OC(CO)C(O)C(O)C3O)c(O)c2)oc2cc(O)cc(O)c12` (stereo not given) [quercetin 4'-glucoside] yielded an LC retention time of 20.4 min.
In the case of `O=C(O)C1(O)CC(O)C(O)C(O)C1` (stereo not given) [quinic acid], the LC retention time is reported as 1.58 min.
With `O=C(O)CCC(=O)O` [succinic acid] the LC retention time was 3.94 min.
`COc1cc(C(=O)O)cc(OC)c1O` [syringic acid] showed an LC retention time of 13.8 min.
For `O=C1c2c(O)cc(O)cc2OC(c2ccc(O)c(O)c2)C1O` (stereo not given) [taxifolin], the LC retention time was 16.8 min.
In the case of `O=C(C=Cc1ccc(O)cc1)OC(C(=O)O)C(O)C(=O)O` (stereo not drawn) [trans coutaric acid], the LC retention time is reported as 10.7 min.
Work on `O=c1cc[nH]c(=O)[nH]1` [uracil] yielded an LC retention time of 2.34 min.
Work on `O=c1[nH]c(=O)c2[nH]c(=O)[nH]c2[nH]1` [uric acid] yielded an LC retention time of 3.44 min.
Compound `COc1cc(-c2oc3cc(=O)cc4oc(O)c(C=[OH+])c(c2OC2OC(CO)C(O)C(O)C2O)c43)cc(OC)c1O` (stereo not given) [vitisin A] has an LC retention time of 19.3 min.
In the case of `Oc1ccc(C2Oc3ccc(C=Cc4cc(O)cc5c4C(c4cc(O)cc(O)c4)C(c4ccc(O)cc4)O5)cc3C2c2cc(O)cc3c2C(c2cc(O)cc(O)c2)C(c2ccc(O)cc2)O3)cc1` (stereo not given) [vitisin B], the LC retention time is reported as 18.3 min.
With `O=c1[nH]c(=O)c2[nH]cnc2[nH]1` [xanthine] the LC retention time was 3.97 min.
